Literature values, collected in PMC12150326 (The Journal of Organic Chemistry, 2025).
Values joined by “and” are separate entries in the source; they are usually repeats but may differ in a detail not shown here. Equal entries are not always repeated. Where two headings read alike, the source gives them in different places.

Experiments:
Parameters in all cases: method as in NCI-60 database
TK-10 = TK-10 ref NCI-60 database, cited from earlier work
U251 = U251 ref NCI-60 database, cited from earlier work
A498 = A498 ref NCI-60 database, cited from earlier work
SK-MEL-5 = SK-MEL-5 ref NCI-60 database, cited from earlier work
NCI-H460 = NCI-H460 ref NCI-60 database, cited from earlier work
HOP-92 = HOP-92 ref NCI-60 database, cited from earlier work
786-0 = 786-0 ref NCI-60 database, cited from earlier work
HL-60(TB) = HL-60(TB) ref NCI-60 database, cited from earlier work
SNB-78 = SNB-78 ref NCI-60 database, cited from earlier work
MCF7 = MCF7 ref NCI-60 database, cited from earlier work
ACHN = ACHN ref NCI-60 database, cited from earlier work
OVCAR-8 = OVCAR-8 ref NCI-60 database, cited from earlier work
RXF 393 = RXF 393 ref NCI-60 database, cited from earlier work
K-562 = K-562 ref NCI-60 database, cited from earlier work
SNB-75 = SNB-75 ref NCI-60 database, cited from earlier work
RXF-631 = RXF-631 ref NCI-60 database, cited from earlier work
MDA-MB-435 = MDA-MB-435 ref NCI-60 database, cited from earlier work
SF-295 = SF-295 ref NCI-60 database, cited from earlier work

Compound: COc1cc2c(c(OC)c1OC)-c1ccc(OC)c(=O)cc1[C@@H](NC(C)=O)CC2 [Colchicine, (−)-Colchicine]
- GI50 (TK-10): > 100 µM
- Log10GI50 (TK-10): > -4 Molar
- Log10LC50 (TK-10): > -4.00 Molar
- Log10TGI (TK-10): > -4.00 Molar
- Log10GI50 (TK-10; listed as 757/1): > -4.00 Molar
- Log10GI50 (TK-10; listed as 757/9): -7.50 Molar
- Log10GI50 (TK-10; listed as 757/21): -4.66 Molar
- GI50 (U251): 0.03 µM
- Log10GI50 (U251): -7.53 Molar
- Log10GI50 (U251; listed as 757/1): -7.38 Molar
- Log10LC50 (U251; listed as 757/1): > -4.00 Molar
- Log10TGI (U251; listed as 757/1): > -4.00 Molar
- Log10GI50 (U251; listed as 757/9): -7.47 Molar
- Log10LC50 (U251; listed as 757/21): -4.31 Molar
- Log10TGI (U251; listed as 757/21): -6.89 Molar and -6.80 Molar
- Log10LC50 (A498): > -4.00 Molar
- Log10GI50 (A498; listed as 757/1): -6.96 Molar
- Log10TGI (A498; listed as 757/1): > -4.00 Molar
- Log10TGI (A498; listed as 757/9): -5.50 Molar
- Log10GI50 (A498; listed as 757/21): -7.68 Molar and -7.40 Molar
- GI50 (SK-MEL-5): < 0.01 µM
- Log10GI50 (SK-MEL-5): < -8 Molar
- Log10GI50 (SK-MEL-5; listed as 757/1): -7.61 Molar
- Log10TGI (SK-MEL-5; listed as 757/9): -7.58 Molar
- Log10GI50 (SK-MEL-5; listed as 757/21): < -8.00 Molar
- Log10LC50 (SK-MEL-5; listed as 757/21): > -4.00 Molar
- GI50 (NCI-H460): 0.02 µM
- Log10GI50 (NCI-H460): -7.65 Molar
- Log10LC50 (NCI-H460): > -4.00 Molar
- Log10TGI (NCI-H460; listed as 757/9): -7.12 Molar
- Log10GI50 (NCI-H460; listed as 757/21): -7.62 Molar and -7.50 Molar and -7.65 Molar
- Log10LC50 (HOP-92): > -4.00 Molar
- Log10GI50 (HOP-92; listed as 757/1): -7.73 Molar
- Log10TGI (HOP-92; listed as 757/1): > -4.00 Molar
- Log10GI50 (HOP-92; listed as 757/21): < -8.00 Molar
- GI50 (786-0): 0.078 µM
- Log10GI50 (786-0): -7.11 Molar
- Log10LC50 (786-0): > -4.00 Molar
- Log10TGI (786-0): > -4.00 Molar
- Log10GI50 (786-0; listed as 757/9): -7.54 Molar and -7.46 Molar
- Log10GI50 (786-0; listed as 757/21): -7.24 Molar and -7.34 Molar and -7.11 Molar
- GI50 (HL-60(TB)): 0.01 µM
- Log10GI50 (HL-60(TB)): -7.89 Molar
- Log10LC50 (HL-60(TB)): > -4.00 Molar
- Log10GI50 (HL-60(TB); listed as 757/1): -7.58 Molar
- Log10GI50 (HL-60(TB); listed as 757/21): < -8.00 Molar and -7.89 Molar
- Log10LC50 (SNB-78): > -4.00 Molar
- Log10TGI (SNB-78): > -4.00 Molar
- Log10GI50 (SNB-78; listed as 757/21): -7.88 Molar and < -8.00 Molar
- GI50 (MCF7): 0.011 µM
- Log10GI50 (MCF7): -7.94 Molar
- Log10LC50 (MCF7): > -4.00 Molar
- Log10GI50 (MCF7; listed as 757/9): < -8.00 Molar
- Log10TGI (MCF7; listed as 757/9): -7.92 Molar
- Log10GI50 (MCF7; listed as 757/21): -7.89 Molar
- Log10TGI (MCF7; listed as 757/21): > -4.00 Molar
- GI50 (ACHN): 0.372 µM
- Log10GI50 (ACHN): -6.43 Molar
- Log10LC50 (ACHN): > -4.00 Molar
- Log10TGI (ACHN): > -4.00 Molar
- Log10GI50 (ACHN; listed as 757/21): -6.40 Molar and -6.43 Molar
- Log10TGI (OVCAR-8; listed as 757/1): > -4.00 Molar
- Log10LC50 (OVCAR-8; listed as 757/9): -7.11 Molar
- Log10LC50 (OVCAR-8; listed as 757/21): > -4.00 Molar
- GI50 (RXF 393): < 0.01 µM
- Log10GI50 (RXF 393): < -8 Molar
- Log10LC50 (RXF 393): > -4.00 Molar
- Log10GI50 (RXF 393; listed as 757/1): < -8.00 Molar
- Log10TGI (RXF 393; listed as 757/1): > -4.00 Molar
- Log10GI50 (RXF 393; listed as 757/9): -7.93 Molar
- Log10GI50 (RXF 393; listed as 757/21): -7.83 Molar and -7.85 Molar
- GI50 (K-562): 0.02 µM
- Log10GI50 (K-562): -7.79 Molar
- Log10LC50 (K-562): > -4.00 Molar
- Log10TGI (K-562): > -4.00 Molar
- Log10GI50 (K-562; listed as 757/1): -7.47 Molar
- Log10GI50 (K-562; listed as 757/21): < -8.00 Molar and -7.84 Molar and -7.79 Molar
- GI50 (SNB-75): 0.91 µM
- Log10GI50 (SNB-75): -6.04 Molar
- Log10LC50 (SNB-75): > -4.00 Molar
- Log10GI50 (SNB-75; listed as 757/1): < -8.00 Molar
- Log10TGI (SNB-75; listed as 757/1): -5.53 Molar
- Log10TGI (SNB-75; listed as 757/9): < -8.00 Molar
- Log10TGI (SNB-75; listed as 757/21): > -4.00 Molar
- Log10LC50 (RXF-631): > -4.00 Molar
- Log10TGI (RXF-631): > -4.00 Molar
- Log10GI50 (RXF-631; listed as 757/21): -7.45 Molar
- GI50 (MDA-MB-435): < 0.01 µM
- Log10GI50 (MDA-MB-435): < -8 Molar
- Log10LC50 (MDA-MB-435; listed as 757/9): < -8.00 Molar
- Log10TGI (MDA-MB-435; listed as 757/9): < -8.00 Molar
- Log10GI50 (MDA-MB-435; listed as 757/21): < -8.00 Molar
- Log10LC50 (MDA-MB-435; listed as 757/21): > -4.00 Molar
- Log10TGI (MDA-MB-435; listed as 757/21): -7.50 Molar
- Log10GI50 (SF-295; listed as 757/1): < -8.00 Molar and -7.70 Molar
- Log10LC50 (SF-295; listed as 757/1): -4.51 Molar
- Log10GI50 (SF-295; listed as 757/9): -7.68 Molar and -7.69 Molar
- Log10TGI (SF-295; listed as 757/9): -7.30 Molar
- Log10GI50 (SF-295; listed as 757/21): -7.88 Molar and -7.77 Molar
- Log10LC50 (SF-295; listed as 757/21): > -4.00 Molar
- Log10TGI (SF-295; listed as 757/21): -7.39 Molar and -7.37 Molar
